Source: US20260250412A1, “COMBINATION OF ANTIBODY-DRUG CONJUGATE AND ANTI-PD-1 ANTIBODY, AND USE THEREOF” (GENEQUANTUM HEALTHCARE (SUZHOU) CO., LTD., priority 2023, published 2026)
Values joined by “and” are separate entries in the source; they are usually repeats but may differ in a detail not shown here. Identical values can stand only once.

Experiments:
[1] = tested on: human pancreatic cancer cells BxPC-3; assay: Cell proliferation, CellTiter Glo, 96 h, BxPC-3; type: cell-based; conditions: BxPC-3, 96 h
Protocol: A positive control group was set: 100 μL Puromycin at a concentration of 10 μg/mL was added to each well. […] After the administration was completed, the cells were moved to the incubator and incubated for 96 h. The 96-well plate was removed from the 37° C. cell incubator and equilibrated to room temperature for 30 minutes. After the medium was discarded, 100 μL of DMEM and 50 μL of CellTiter Glo reagent were added to each well, and the cells were shaken in the dark at 200 rpm for 15 minutes, and the luminescent signal reflecting cell viability was detected by a microplate reader.

[2] = tested on: human gastric cancer cells NCI-N87; assay: Cell proliferation, CellTiter Glo, 96 h, NCI-N87; type: cell-based; conditions: NCI-N87, 96 h
Protocol: Two thousand human pharyngeal squamous cells carcinoma FaDu with high TROP2 expression were seeded into 96-well plates in 100 μL of culture medium per well, and incubated overnight in a cell incubator at 37° C. and 5% CO2. […] A positive control group was set: 100 μL Puromycin at a concentration of 10 μg/mL was added to each well. A negative control group was set: 100 μL of complete medium of FaDu cells was added to each well. After the administration was completed, the cells were moved to the incubator and incubated for 96 h. The 96-well plate was removed from the 37° C. cell incubator and equilibrated to room temperature for 30 minutes. After the medium was discarded, 100 μL of DMEM and 50 μL of CellTiter Glo reagent were added to each well, and the cells were shaken in the dark at 200 rpm for 15 minutes, and the luminescent signal reflecting cell viability was detected by a microplate reader. The inhibitory effects of the tested drugs on the proliferation of human pharyngeal squamous cell carcinoma FaDu are as shown in FIG. 2 and Table 7.
The human pharyngeal squamous cells carcinoma FaDu in Example 2.1.1 were replaced with human gastric cancer cells NCI-N87 (100 μL per well containing 5000 cells), and the inhibitory effect of ADC-7 was evaluated using the same process.

[3] = tested on: Trop2 positive cancer cells BxPC-3; assay: Cytotoxicity assay, CellTiter-Glo, 168 h, BxPC-3; type: cell-based, human
Protocol: (§1) In brief, 3000 to 5000 cells were plated in 96-well plates, and cells were able to attach overnight. Cells were treated with indicated drugs with various concentrations for 168 h. Cell viabilities were examined by CellTiter-Glo® Luminescent Cell Viability Assay, and percentage of cell viability was calculated.

[4] = tested on: Trop2 positive cancer cells FaDu; assay: Cytotoxicity assay, CellTiter-Glo, 168 h, FaDu; type: cell-based, human
Protocol: as §1

[5] = tested on: human breast cancer BR-05-0028 model; assay: In vivo efficacy, human breast cancer BR-05-0028 mouse xenograft tumor; set-up: species or system BALB/c nude mice
Protocol: II. The tumor diameter was measured with a vernier caliper and the tumor volume was calculated according to the formula V=0.5a×b^2 (where a is the longest diameter of the tumor and b is the shortest diameter of the tumor). […] Animals in each group were administered by tail vein injection, and the control group was given an equal volume of vehicle. […] T/C and TGI values were calculated using tumor volume. The calculation formula is as follows: T/C %=TRTV/CRTV×100% (TRTV: RTV of the treatment group; CRTV: RTV of the vehicle control group). The relative tumor volume (RTV) was calculated based on the results of tumor measurement, and the calculation formula was RTV=Vt/V0, where V0 was the average tumor volume measured at the time of grouping (i.e., D0), Vt was the average tumor volume at one measurement, and TRTV and CRTV took the same day of data.
The human breast cancer BR-05-0028 model (IHC 3±) was derived from tumor samples resected in clinical surgery. The tumor samples were inoculated into nude mice at the P0 generation, and the tumor tissue used in this example was the P5 generation. Tumor tissue with a volume of about 30 mm^3 was subcutaneously inoculated into the right back dorsum of SPF female BALB/c nude mice aged 6-8 weeks.

[6] = tested on: FaDu mouse xenograft tumor; assay: In vivo efficacy, FaDu mouse xenograft tumor; set-up: species or system BALB/c nude mice; conditions: for Tumor volume (mm^3) Day 0: baseline at grouping
Protocol: I. The logarithmic growth phase BxPC-3 were collected and the cell density was adjusted to 10×10^6 cells/mL with Matrigel buffer (PBS:Matrigel=1:1). 0.2 mL of the prepared BxPC-3 cell suspension was subcutaneously injected into the right scapula of SPF female BALB/c nude mice aged 6-8 weeks.
II. The tumor diameter was measured with a vernier caliper and the tumor volume was calculated according to the formula V=0.5a×b^2 (where a is the longest diameter of the tumor and b is the shortest diameter of the tumor). […] Animals in each group were administered by tail vein injection, and the control group was given an equal volume of vehicle. The tumor volume of animals in each group was measured twice a week within 35 days after administration, and the tumor volume of animals on day 35 was compared between groups. T/C and TGI values were calculated using tumor volume. The calculation formula is as follows: T/C %=TRTV/CRTV×100% (TRTV: RTV of the treatment group; CRTV: RTV of the vehicle control group). The relative tumor volume (RTV) was calculated based on the results of tumor measurement, and the calculation formula was RTV=Vt/V0, where V0 was the average tumor volume measured at the time of grouping (i.e., D0), Vt was the average tumor volume at one measurement, and TRTV and CRTV took the same day of data.
The BxPC-3 pancreatic cancer cells in Example 3.3.1 were replaced with human pharyngeal squamous cells carcinoma FaDu, and 10 days after cell inoculation, when the average tumor volume was about 119 mm^3, animals were randomly divided into vehicle control group, […], with 6 animals in each group.

[7] = tested on: MDA-MB-468 mouse xenograft tumor; assay: In vivo efficacy, MDA-MB-468 mouse xenograft tumor; set-up: species or system BALB/c Nude mice; conditions: 4.5 mg/kg, intravenously
Protocol: The MDA-MB-468 tumor cells (ATCC, HTB-132) were maintained in vitro as a monolayer culture in L-15 medium supplemented with 10% fetal bovine serum and 1% Antibiotic-Antimycotic at 37° C. in an atmosphere of 0% CO2 in air. The cells growing in an exponential growth phase will be harvested and counted for tumor inoculation. For in vivo anti-tumor efficacy study, 10×10^6 MDA-MB-468 human breast cancer cells (Trop2 positive) in 0.2 mL of PBS with Matrigel (1:1) were inoculated subcutaneously in the right flank in BALB/c Nude mice. […] The tumor volume was measured twice weekly with a caliper. T/C and TGI values were calculated using tumor volume.

[8] = Table 15, single dose, 5 mg/kg, Day 21

**Q.** DS1062a was tested. Which “inhibition of proliferation (in words)” value [1] did it give?
**A.** could inhibit the proliferation of BxPC-3 cells

**Q.** What about the IC50 ([1]; Table 8) of the same substance?
**A.** 0.584 nM

**Q.** And the “inhibition of proliferation (in words)” value [2]?
**A.** could inhibit the proliferation of NCI-N87 cells

**Q.** What about the IC50 ([2]; Table 10) of the same substance?
**A.** 1.26 nM

**Q.** What about the IC50 [3] of the same substance?
**A.** 0.692 nM

**Q.** What about the IC50 [4] of the same substance?
**A.** 0.17 nM

**Q.** What about the “Tumor volume (mm^3) Day 21” value ([5]; Table 15, single dose, 5 mg/kg) of the same substance?
**A.** 8 ± 1 mm^3

**Q.** What about the “T/C (%)” value [5, 8] of the same substance?
**A.** 0.48%

**Q.** What about the “TGI (%)” value [5, 8] of the same substance?
**A.** 111.60%

**Q.** What about the “Tumor volume (mm^3) Day 0” value ([5]; Table 15, single dose, 5 mg/kg, baseline at grouping) of the same substance?
**A.** 171 ± 23 mm^3

**Q.** And the “tumor growth inhibition (in words)” value ([5]; effect example 3.1.3, 5 mg/kg (ADC-1 also 10 mg/kg), after 21 days)?
**A.** able to significantly inhibit tumor growth

**Q.** What about the “Tumor volume (mm^3) Day 28” value ([6]; Table 18, 3 mg/kg) of the same substance?
**A.** 28 mm^3 and 28 ± 14 mm^3

**Q.** What about the “T/C (%)” value ([6]; Table 18, 3 mg/kg, Day 28) of the same substance?
**A.** 1.68%

**Q.** And the “TGI (%)” value ([6]; Table 18, 3 mg/kg, Day 28)?
**A.** 106.11%

**Q.** What about the “Tumor volume (mm^3) Day 0” value ([6]; Table 18, 3 mg/kg) of the same substance?
**A.** 123 ± 13 mm^3

**Q.** And the “Tumor volume (mm^3) Day 31” value ([6]; Table 21, 2 mg/kg)?
**A.** 296 mm^3 and 296 ± 125 mm^3

**Q.** What about the “T/C (%)” value ([6]; Table 21, 2 mg/kg, Day 31) of the same substance?
**A.** 15.47%

**Q.** What about the “TGI (%)” value ([6]; Table 21, 2 mg/kg, Day 31) of the same substance?
**A.** 90.15%

**Q.** And the “Tumor volume (mm^3) Day 0” value ([6]; Table 21, 2 mg/kg)?
**A.** 119 ± 11 mm^3

**Q.** And the “tumor growth inhibition (in words)” value ([6]; effect example 3.2.3, 3 mg/kg, after 28 days)?
**A.** could significantly inhibit FaDu tumor growth

**Q.** And the “tumor growth inhibition (in words)” value ([6]; effect example 3.3.3, 2 mg/kg, after 31 days)?
**A.** could significantly inhibit tumor growth

**Q.** What about the “Tumor volume (mm^3) on day 35” value [7] of the same substance?
**A.** 9 ± 9 mm^3

**Q.** What about the “T/C (%)” value ([7]; day 35) of the same substance?
**A.** 1.35%

**Q.** And the “TGI (%)” value ([7]; day 35)?
**A.** 136.06%
